The results in this text go back to ChEMBL document CHEMBL1671675, “Population pharmacokinetics of ganciclovir after intravenous ganciclovir and oral valganciclovir administration in solid organ transplant patients infected with cytomegalovirus” (Antimicrob Agents Chemother, 2009).

The bioavailability is the share of a dose that reaches the circulation, judged against a reference dose that is usually intravenous.

Each structure is given as a SMILES string.

A short description of series [1]: Bioavailability in solid organ transplant patient exhibiting […] creatinine clearance infected with cytomegalovirus at 5 mg/kg, iv bid for 5 days followed by 900 mg of oral valganciclovir dosed twice daily for 16 days dose adjustment for renal function by final population pharmacokinetic model. The note with it: human, in vivo. Type of series: ADME, organism-based.

In series [2] the test system is Homo sapiens. As to the kind of experiment: Intercompartmental clearance between central and peripheral compartments in solid organ transplant patient exhibiting […] creatinine clearance infected with cytomegalovirus at 5 mg/kg, iv bid for 5 days followed by 900 mg of oral valganciclovir dosed twice daily for 16 days dose adjustment for renal function by basal population pharmacokinetic model. The note with it: in vivo. Format: ADME, organism-based. On the set-up: dose 5 mg/kg, route oral.

Series [3] deals with Homo sapiens. As to the kind of experiment: Drug absorption in solid organ transplant patient exhibiting […] creatinine clearance infected with cytomegalovirus assessed as first-order absorption rate constant at 5 mg/kg, iv bid for 5 days followed by 900 mg of oral valganciclovir dosed twice daily for 16 days dose adjustment for renal function. Type of series: ADME, organism-based. More on the design: dose 5 mg/kg, route oral. As to conditions: in vivo.

Series [4] deals with Homo sapiens. As to the kind of experiment: Central volume of distribution in solid organ transplant patient exhibiting […] creatinine clearance infected with cytomegalovirus at 5 mg/kg, iv bid for 5 days followed by 900 mg of oral valganciclovir dosed twice daily for 16 days dose adjustment for renal function by basal population pharmacokinetic model. Type of series: ADME, organism-based. On the set-up: dose 5 mg/kg, route oral. As to conditions: in vivo.

Series [5] deals with Homo sapiens. As to the kind of experiment: Central volume of distribution in solid organ transplant patient exhibiting […] creatinine clearance infected with cytomegalovirus at 5 mg/kg, iv bid for 5 days followed by 900 mg of oral valganciclovir dosed twice daily for 16 days dose adjustment for renal function by final population pharmacokinetic model. As to conditions: in vivo. On the set-up: dose 5 mg/kg, route oral. Type of series: ADME, organism-based.

Series [6] in a line: Bioavailability in solid organ transplant patient exhibiting 57 mL/min creatinine clearance infected with cytomegalovirus at 5 mg/kg, iv bid for 5 days followed by 900 mg of oral valganciclovir dosed twice daily for 16 days dose adjustment for renal function by basal population pharmacokinetic model. As to conditions: human, in vivo.
For series [7], the system named is Homo sapiens. Put plainly: Drug absorption in solid organ transplant patient exhibiting […] creatinine clearance infected with cytomegalovirus assessed as first-order absorption rate constant at 5 mg/kg, iv bid for 5 days followed by 900 mg of oral valganciclovir dosed twice daily for 16 days dose adjustment for renal function by basal population pharmacokinetic model. Format: ADME, organism-based. More on the design: dose 5 mg/kg, route oral. The note with it: in vivo.

Series [8] has as its system Homo sapiens. As to the kind of experiment: Intercompartmental clearance between central and peripheral compartments in solid organ transplant patient exhibiting 57 L/hr creatinine clearance infected with cytomegalovirus at 5 mg/kg, iv bid for 5 days followed by 900 mg of oral valganciclovir dosed twice daily for 16 days dose adjustment for renal function by final population pharmacokinetic model. Type of series: ADME, organism-based. As to conditions: in vivo. On the set-up: dose 5 mg/kg, route oral.

Series [9] deals with Homo sapiens. As to the kind of experiment: Clearance in solid organ transplant patient exhibiting […] creatinine clearance infected with cytomegalovirus at 5 mg/kg, iv bid for 5 days followed by 900 mg of oral valganciclovir dosed twice daily for 16 days dose adjustment for renal function by final population pharmacokinetic model. The note with it: in vivo. More on the design: dose 5 mg/kg, route oral. Type of series: ADME, organism-based.

The subject of series [10] is Homo sapiens. As to the kind of experiment: Clearance in solid organ transplant patient exhibiting […] creatinine clearance infected with cytomegalovirus at 5 mg/kg, iv bid for 5 days followed by 900 mg of oral valganciclovir dosed twice daily for 16 days dose adjustment for renal function by basal population pharmacokinetic model. More on the design: dose 5 mg/kg, route oral. Type of series: ADME, organism-based. The note with it: in vivo.

For the compound `Nc1nc(O)c2ncn(COC(CO)CO)c2n1` [GANCICLOVIR], the values for the bioavailability in [1] and in series [6] were 82.5% and 76%, respectively. In addition, the CL came to 9.65 L/h in series [2], 10.2 L/h in [8], 7.49 L/h in [9] and 6.34 L/h in [10]. For the same compound, the Ka in [3] was 0.895 h⁻¹; in [7], 0.971 h⁻¹. Besides, the Vd in series [4] came to 32 L; in series [5], 31.9 L.
